Results as given in patent US20100267561A1, “HERBICIDAL PYRIDAZINONE DERIVATIVES” (priority 2007, published 2010).

Assays:
Assay type in all cases: in vivo
[1] = system: chickweed (Stellaria media); experiment: Test B postemergence plant response; conditions: for Plant response rating, Chickweed: Postemergence
In short: (§1)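 Postemergence spray on 1- to 4-leaf plants (2–18 cm); greenhouse 13–15 d; visual rating vs controls, 0 = no effect, 100 = complete control; dash = not tested.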

[2] = system: canarygrass (Phalaris minor); experiment: Test B postemergence plant response; conditions: for Plant response rating, Canarygrass: Postemergence
In short: as §1

[3] = system: winter barley (Hordeum vulgare); experiment: Test B postemergence plant response; conditions: for Plant response rating, Barley: Postemergence, scale 0 to 100, 0 no effect, 100 complete control
In short: as §1

[4] = system: windgrass (Apera spica-venti); experiment: Test B postemergence plant response; conditions: for Plant response rating, Windgrass: Postemergence
In short: as §1

[5] = system: large crabgrass (Digitaria sanguinalis); experiment: Test A pre-/postemergence plant response
In short: (§2)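 Ratings are visual, 0–100, where 100 means complete control and 0 no effect, taken roughly 10 days after treatment by comparison with untreated controls. Formulation: non-phytotoxic solvent mixture with surfactant.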

[6] = system: barnyardgrass (Echinochloa crus-galli); experiment: Test A pre-/postemergence plant response
In short: as §2

[7] = system: velvetleaf (Abutilon theophrasti); experiment: Test A pre-/postemergence plant response
In short: as §2

[8] = system: morningglory (Ipomoea coccinea); experiment: Test A pre-/postemergence plant response
In short: as §2

[9] = system: wheat (Triticum aestivum); experiment: Test A pre-/postemergence plant response
In short: as §2

corn (Zea mays) = experiment: Test A pre-/postemergence plant response
In short: as §2

[10] = system: pigweed (Amaranthus retroflexus); experiment: Test A pre-/postemergence plant response
In short: as §2

[11] = system: barnyardgrass (Echinochloa crus-galli); experiment: Test B flooded paddy test plant response
In short: (§3)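 Rice, umbrella sedge, ducksalad and barnyardgrass at 2-leaf stage; pots flooded to 3 cm, compounds applied into paddy water, depth held throughout. Greenhouse 13 to 15 days, then visual rating vs untreated controls on 0–100 scale (0 no effect, 100 complete control); dash means no test result.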

rice (Oryza sativa) = experiment: Test B flooded paddy test plant response
In short: as §3

[12] = system: ducksalad (Heteranthera limosa); experiment: Test B flooded paddy test plant response
In short: as §3

[13] = system: umbrella sedge (Cyperus difformis); experiment: Test B flooded paddy test plant response
In short: as §3

[14] = 8 g ai/ha, postemergence, 0-100 scale
[15] = 31 g ai/ha, scale 0 to 100, 0 no effect, 100 complete control
[16] = 62 g ai/ha, scale 0 to 100, 0 no effect, 100 complete control
[17] = Postemergence, 31 g ai/ha, 0 to 100 scale (0 no effect, 100 complete control)
[18] = Postemergence, 125 g ai/ha, 0 to 100 scale, 0 no effect, 100 complete control
[19] = Preemergence, 31 g ai/ha, 0 to 100 scale, 0 is no effect, 100 is complete control
[20] = Preemergence, 125 g ai/ha, 0 to 100 scale (0 no effect, 100 complete control)
[21] = Flood (flooded paddy test), 62 g ai/ha, scale 0 to 100, 0 no effect, 100 complete control
[22] = Flood (flooded paddy test), 125 g ai/ha, scale 0 to 100, 0 no effect, 100 complete control
[23] = Flood (flooded paddy test), 250 g ai/ha, scale 0 to 100, 0 no effect, 100 complete control
[24] = Flood, 31 g ai/ha, scale 0 to 100

Cc1cc(-c2ccc(Cl)cc2)nn1-c1c(OC(=O)C(C)C)cnn(C)c1=O [Compound 34]
Chickweed plant response rating [1, 14]: 0
Plant response rating, Chickweed ([1]; 16 g ai/ha, scale 0 to 100): 0
Plant response rating, Chickweed [1, 15]: 0
Plant response rating, Chickweed [1, 16]: 0
Canarygrass plant response rating [2, 14]: 10
Plant response rating, Canarygrass ([2]; 16 g ai/ha, scale 0 to 100): 10
Plant response rating, Canarygrass [2, 15]: 20
Plant response rating, Canarygrass [2, 16]: 20
Barley plant response rating [3, 14]: 0
Plant response rating, Barley ([3]; 16 g ai/ha): 0
Plant response rating, Barley ([3]; 31 g ai/ha): 0
Plant response rating, Barley ([3]; 62 g ai/ha): 15
Windgrass plant response rating [4, 14]: 0
Plant response rating, Windgrass ([4]; 16 g ai/ha, scale 0 to 100): 10
Plant response rating, Windgrass [4, 16]: 80
Plant response rating, Crabgrass, Large [5, 17]: 70
Plant response rating, Crabgrass, Large [5, 18]: 100
Plant response rating, Crabgrass, Large [5, 19]: 80
Plant response rating, Crabgrass, Large [5, 20]: 90
Plant response rating, Barnyardgrass [6, 17]: 90
Plant response rating, Barnyardgrass [6, 18]: 100
Plant response rating, Barnyardgrass [6, 19]: 70
Plant response rating, Barnyardgrass [6, 20]: 100
Plant response rating, Velvetleaf [7, 17]: 0
Plant response rating, Velvetleaf [7, 18]: 0
Plant response rating, Velvetleaf [7, 19]: 0
Plant response rating, Velvetleaf [7, 20]: 0
Plant response rating, Morningglory [8, 17]: 0
Plant response rating, Morningglory [8, 18]: 0
Plant response rating, Morningglory [8, 19]: 0
Plant response rating, Morningglory [8, 20]: 0
Plant response rating, Wheat [9, 17]: 40
Plant response rating, Wheat [9, 18]: 60
Plant response rating, Wheat [9, 19]: 30
Plant response rating, Wheat [9, 20]: 70
Plant response rating, Corn (corn (Zea mays); [17]): 70
Plant response rating, Corn (corn (Zea mays); [18]): 90
Plant response rating, Corn (corn (Zea mays); [19]): 20
Plant response rating, Corn (corn (Zea mays); [20]): 60
Plant response rating, Pigweed [10, 17]: 0
Plant response rating, Pigweed [10, 18]: 10
Plant response rating, Pigweed [10, 19]: 0
Plant response rating, Pigweed [10, 20]: 0
Plant response rating, Barnyardgrass [11, 21]: 50
Plant response rating, Barnyardgrass [11, 22]: 100
Plant response rating, Barnyardgrass [11, 23]: 100
Plant response rating, Barnyardgrass [11, 24]: 40
Plant response rating, Rice (rice (Oryza sativa); [21]): 40
Plant response rating, Rice (rice (Oryza sativa); [22]): 70
Plant response rating, Rice (rice (Oryza sativa); [23]): 80
Plant response rating, Rice (rice (Oryza sativa); [24]): 0
Plant response rating, Ducksalad [12, 21]: 0
Plant response rating, Ducksalad [12, 22]: 30
Plant response rating, Ducksalad [12, 23]: 40
Plant response rating, Ducksalad [12, 24]: 0
Plant response rating, Sedge, Umbrella [13, 21]: 0
Plant response rating, Sedge, Umbrella [13, 22]: 0
Plant response rating, Sedge, Umbrella [13, 23]: 0
Plant response rating, Sedge, Umbrella [13, 24]: 0
